As usually defined, the Ki is a dissociation constant, usually derived from enzyme kinetics or from competition with a known ligand.

One experiment deals with T1, hASCT1 (Homo sapiens, UniProt P43007).
T1 construct: expressed in transfected cells; host or cells: HEK293 (ATCC CRL-11268), transient transfection
T1 sequence (P43007 1-532): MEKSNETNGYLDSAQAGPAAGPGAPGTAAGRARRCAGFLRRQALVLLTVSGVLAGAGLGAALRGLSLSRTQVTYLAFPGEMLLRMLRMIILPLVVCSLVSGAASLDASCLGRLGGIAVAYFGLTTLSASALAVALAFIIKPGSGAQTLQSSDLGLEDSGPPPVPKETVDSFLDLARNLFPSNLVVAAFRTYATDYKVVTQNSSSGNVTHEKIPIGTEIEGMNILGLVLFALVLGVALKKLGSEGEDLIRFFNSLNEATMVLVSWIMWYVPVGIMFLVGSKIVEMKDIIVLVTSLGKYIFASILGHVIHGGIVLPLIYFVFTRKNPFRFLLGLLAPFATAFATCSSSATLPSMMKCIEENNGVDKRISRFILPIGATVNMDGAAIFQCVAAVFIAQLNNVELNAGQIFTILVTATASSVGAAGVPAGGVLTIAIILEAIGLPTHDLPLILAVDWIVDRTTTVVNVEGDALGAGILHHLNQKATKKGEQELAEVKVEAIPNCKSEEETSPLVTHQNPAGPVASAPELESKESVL
The experiment can be described thus: Electrophysiology: SLC1 specificity, anion current in transfected HEK293 cells. To be noted: for Ki: read-out: Binding affinity Ki. Format: cell-based. How it is done: (§1) We also tested the specificity of Lc-BPE for ASCT2 over other SLC1 family members (ASCT1, EAAT1-3, and EAAT5).
(§2) Fig. S3. SLC-1 specificity of Lc-BPE. (A) Electrophysiological current responses to the application of 100 µM glutamate (red trace) or varying concentrations of Lc-BPE (black, blue and red traces) to rEAAT1-expressing cells HEK293 cells. (B-C) Dose response curves obtained from currents recorded a fter application of Lc-BPE extracellularly to cells transiently expressing hASCT2, rASCT2, hASCT1 (panel B) and rEAAT1, rEAAT2, rEAAT3 and hEAAT5 (panel C) respectively. For hASCT2, rASCT2 and hASCT1, intracellular pipette solution contained 10 mM alanine and 130 mM NaSCN. For rEAAT1, rEAAT2, rEAAT3 and hEAAT5, intracellular solution contained 10 mM glutamate and 130 mM NaSCN. Extracellular solution was the same for all the experiments (140 mM NaCl). The voltage was 0 mV. […]
(§3) Cell culture and transfection
(§4) Human embryonic kidney 293 (HEK293, ATCC CRL -11268) cells were cultured in DMEM media supplemented with 10% (v/v) fetal bovine serum (FBS), 2 mM glutamine, 1% penicillin streptomycin solution, 1 mM sodium pyruvate and non -essential amino acids. Cells were maintained at 370C in a fully humidified atmosphere containing 5% CO2. rASCT2, hASCT2, hASCT1, EAAT1, EAAT2, EAAT3, EAAT5 and YFP complementary DNAs were each used to transiently transfect HEK293 using POLYPLUS Jet-prime transfection reagent. Cells were analyzed using electrophysiological techniques 24-40 hours after transfection.
(§5) Electrophysiological techniques
(§6) Electrophysiological experiments were performed as described previously 1,2. Stock solutions of inhibitor was prepared in dimethyl sulfoxide (DMSO) up to 100 mM.
(§7) Dilutions to working concentrations were made using external buffer. The highest […]
(§8) cells. For rASCT2, hASCT2 and hASCT1, external buffer contained 140 mM NaCl, 2 mM MgCl2, 2 mM CaCl2, and 10 mM HEPES, pH 7.40 while internal pipette solution comprised of 130 mM NaSCN, 2 mM MgCl2, 10 mM EGTA, 10 mM HEPES and 10mM alanine, pH 7.40. For specificity experiments with EAAT1, EAAT2, EAAC1 and EAAT5, internal solution contained 10 mM glutamate instead of alanine. Compounds were applied to HEK293 cells expressing DNA of interest suspended from a current recording electrode in whole cell configuration44 through a rapid solution exchange device described previously45. Cells are immersed in external buffer bath used to dissolve the inhibitors. The open pipette resistance was between 3 and 6 MΩ. Series resistance was not compensated in these experiments due to relatively small currents. Current s traces were recorded using an Adams and List EPC7 amplifier and digitized using a Molecular Devices Digidata A/D converter.
(§9) Data analysis was performed as described previously 46. Linear and nonlinear curve fitting of the experimental data were analyzed using MicroCal Origin software. Linear plots were fitted using the general equation (y = a + bx) obtaining adjusted R 2 and Pearson’s r values. Nonlinear dose–response relationships were fitted with a Michaelis – Menten-like equation to obtain apparent Ki values in the absence of substrate. For competition studies, equation I = I1 + I2 [Inh]/(Ki + [Inh]) was used for fitting, where I1 is the alanine induced current without the inhibitor, and I2 is the maximum current in the presence of saturating inhibitor concentration, [Inh]max 1,2. At least five experiments were performed for each compound. Unless stated otherwise, the error bars in all our graphs represent mean ± SD .
(§10) ASCT2 expression and purification
(§11) Human ASCT2 (hASCT2) was produced in Pichia pastoris X-33 strain (Invitrogen) in fermentor26 and purified using DDM and CHS (Anatrace) and 1 mM L-glutamine (Merck) to maintain protein stability 27. Membranes representing ~1.5 g cells were solubilized in buffer A (25 mM Tris-HCl, pH 7.4, 300 mM NaCl, 10% (vol/vol) glycerol, 1 mM L - glutamine, 1% DDM and 0.1% CHS) for 1 h at 4 °C; ultracentrifuged (30 min, 442,907 × […]

Another experiment has as its target T2, rEAAT1 (Rattus norvegicus, UniProt P24942).
T2 construct: expressed in transfected cells; host or cells: HEK293 (ATCC CRL-11268), transient transfection
T2 sequence (P24942 1-543): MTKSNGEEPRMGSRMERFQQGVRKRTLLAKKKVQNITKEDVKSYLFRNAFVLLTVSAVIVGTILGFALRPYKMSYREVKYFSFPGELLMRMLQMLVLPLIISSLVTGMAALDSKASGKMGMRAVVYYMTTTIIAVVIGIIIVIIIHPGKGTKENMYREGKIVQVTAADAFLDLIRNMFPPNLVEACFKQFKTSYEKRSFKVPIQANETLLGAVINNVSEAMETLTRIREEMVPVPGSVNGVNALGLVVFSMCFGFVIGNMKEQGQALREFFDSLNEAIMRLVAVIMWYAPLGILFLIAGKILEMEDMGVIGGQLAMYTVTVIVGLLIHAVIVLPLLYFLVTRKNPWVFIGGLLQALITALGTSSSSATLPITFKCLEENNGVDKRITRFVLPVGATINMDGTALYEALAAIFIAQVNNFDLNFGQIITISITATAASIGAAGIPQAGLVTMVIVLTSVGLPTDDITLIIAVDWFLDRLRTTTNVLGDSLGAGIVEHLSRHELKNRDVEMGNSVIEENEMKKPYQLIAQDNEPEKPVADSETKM
Described as above. Format: cell-based. Particulars: 0 mV, 10 mM glutamate and 130 mM NaSCN internal, No current = no outward current up to highest concentration tested (§ 20-50, || 100-400, # 1500-2500 µM); for Ki: read-out: Binding affinity Ki. How it is done:
as §1, §2, §3, §4, §5, §6, §7, §8, §9, §10, §11

Where [1] appears, read: HEK293 cells, 0 mV, 10 mM alanine and 130 mM NaSCN internal, No current = no outward current up to highest concentration tested (§ 20-50, || 100-400, # 1500-2500 µM).

Take `O=C(O[C@@H]1CN[C@H](C(=O)O)C1)c1ccc(C(O)c2ccccc2)cc1` (stereo partly shown) [ERA-9]: the Ki was 43 ± 13.4 µM on hASCT1 (setting [1]) and 39.5 µM at rEAAT1.

As for `O=C(O[C@H]1CN[C@H](C(=O)O)C1)c1ccc(C(=O)c2ccccc2)cc1` [ERA-35], on rEAAT1, the “Binding affinity Ki” value is “No current”.

As for `O=C(O[C@@H]1CN[C@H](C(=O)O)C1)c1ccc(-c2ccc(C(F)(F)F)cc2)cc1` [ERA-5], the Ki on hASCT1 (setting [1]) came to 0.44 ± 0.14 µM; at rEAAT1, 1 ± 0.25 µM.

Turning to `O=C(O[C@@H]1CN[C@H](C(=O)O)C1)c1ccc(Oc2ccccc2)cc1` [ERA-16], the Ki came to 5.71 ± 0.91 µM at hASCT1 (setting [1]) and 8.18 ± 1.77 µM at rEAAT1.

Consider `O=C(O[C@@H]1CN[C@H](C(=O)O)C1)c1ccc(-c2ccc(F)cc2)cc1` [ERA-4], for which the Ki is 0.9 ± 0.08 µM at hASCT1 (setting [1]) and 0.4 ± 0.07 µM at rEAAT1.

Regarding `O=C(O[C@@H]1CN[C@H](C(=O)O)C1)c1ccccc1-c1ccccc1` [ERA-3], the “Binding affinity Ki” value at hASCT1 (setting [1]) and at rEAAT1 was “No current” throughout.

In the case of `N[C@@H](COC(=O)c1ccccc1)C(=O)O` [ERA-25], the Ki is 170 ± 26.7 µM at hASCT1 (setting [1]) and 195 ± 48.4 µM at rEAAT1.

`O=C(O[C@@H]1CN[C@H](C(=O)O)C1)c1ccc(OCc2ccccc2)cc1` [ERA-31]: the Ki at hASCT1 (setting [1]) was more than 100 µM. Besides, the “Binding affinity Ki” value at rEAAT1 is “No current”.

With `N[C@@H](COC(=O)c1cccnc1)C(=O)O` [ERA-28], the inhibition constant Ki at hASCT1 (setting [1]) worked out at 549 ± 306 µM. Besides, the “Binding affinity Ki” value on rEAAT1 is on record as “No current”.

Consider `N[C@@H](COC(=O)c1ccc(NC(=O)c2ccccc2)cc1)C(=O)O` [ERA-21], for which the Ki on hASCT1 (setting [1]) came out at 11.6 ± 1.75 µM; at rEAAT1, 9.57 ± 1.61 µM.

`O=C(O[C@@H]1CN[C@H](C(=O)O)C1)c1ccc(-c2ccccc2)cc1` [Lc-BPE, L-cis hydroxyproline biphenyl ester]: the “apparent affinity of hASCT1 lower than that of rASCT2” value on hASCT1 (hASCT1 versus rASCT2) is reported as approximately 3.8 fold.

For the compound `Cc1ccccc1-c1ccc(C(=O)O[C@@H]2CN[C@H](C(=O)O)C2)cc1` [ERA-6], the values for the Ki at hASCT1 (setting [1]) and at rEAAT1 were 1.33 ± 0.3 µM and 1 ± 0.11 µM, respectively.

Turning to `O=C(O[C@@H]1CN[C@H](C(=O)O)C1)C(c1ccccc1)c1ccccc1` [ERA-29], the “Binding affinity Ki” value on rEAAT1 is given as “No current”.

Regarding `O=C(Nc1ccc(C(=O)O[C@@H]2CN[C@H](C(=O)O)C2)cc1)c1ccc(C(F)(F)F)cc1` [ERA-11], the Ki on hASCT1 (setting [1]) turned out to be 8.51 ± 3.87 µM; on rEAAT1, 9.6 ± 7.5 µM.

(Values after publication PMC8449414, “Rational design of ASCT2 inhibitors using an integrated experimental-computational approach” (Proceedings of the National Academy of Sciences of the …, 2021).)
